The source of these data is patent US20090291913A1, “FACTOR Xa INHIBITOR FORMULATION AND METHOD” (Bristol-Myers Squibb Company, priority 2005, published 2009).

Some results are limits rather than exact numbers.

Broadly, the solubility is the concentration that dissolves in the medium under given conditions.

The nature of series [1]: aqueous solubility as a function of pH. Type of series: physicochemical.
Series [2] in a line: solubility in substituted-β-cyclodextrin solution as a function of pH. It is filed as physicochemical.
[3] abbreviates: aqueous buffer, neutral form / free base, room temperature, pH 6.8.

Consider `COc1ccc(-n2nc(C(N)=O)c3c2C(=O)N(c2ccc(N4CCCCC4=O)cc2)CC3)cc1` [Apixaban, 1-(4-methoxyphenyl)-7-oxo-6-[4-(2-oxo-1-piperidinyl)phenyl]-4,5,6,7-tetrahydro-1H-pyrazolo [3,4-c]pyridine-3-carboxamide], for which, in series [1] (setting [3]), the solubility was < 1 µg/mL.
For the molecule `CN(C)Cc1nccn1-c1ccc(NC(=O)c2cc(C(F)(F)F)nn2-c2ccc3onc(N)c3c2)c(F)c1.Cl` [razaxaban], the solubility was < 1 µg/mL in series [1] (setting [3]) and ~3000 µg/mL in series [1] (simulated gastric fluid, hydrochloride salt, normal gastric pH condition, pH of gastric medium ~1-2). In addition, the “solubility on adjusting pH” value in series [1] (pH adjusted within pH 3-11, needed level e.g. 2.5 mg/mL) is reported as “could not be increased to the needed level”. Moreover, the “solubility in the substituted-β-cyclodextrins” value in series [2] (pH 4.5 versus higher pH's up to 11) was “same solubility”. Moreover, in series [2] (pH lowered to between about 3 and about 4), the “solubility in substituted-β-cyclodextrin solution” value is listed as “increase in solubility”.
